Article PMC7901646, “Pyrrolo[2′,3′:3,4]cyclohepta[1,2-d][1,2]oxazoles, a New Class of Antimitotic Agents Active against Multiple Malignant Cell Types” (Journal of Medicinal Chemistry, 2020)

What was measured:
[1] = test system: human peripheral blood lymphocytes not stimulated with PHA; assay: Cytotoxicity in resting PBLs (MTT); type: cell-based; conditions: Lymphocyte, 72 h, mean ± SEM, three experiments, read-out: GI50 PBLresting
Method: (§1) PBLs were obtained from human peripheral blood (leucocyte rich plasma-buffy coats) from healthy volunteers using the Lymphoprep (Fresenius KABI Norge AS) gradient density centrifugation.
(§2) After extensive washing, cells were resuspended (1.0 × 10^6 cells/mL) in RPMI-1640 with 10% fetal bovine serum and incubated overnight. For cytotoxicity evaluations in proliferating PBL cultures, nonadherent cells were resuspended at 5 × 10^5 cells/mL in growth medium, containing 2.5 μg/mL PHA (Irvine Scientific). Different concentrations of the test compounds were added, and viability was determined 72 h later by the MTT test. For cytotoxicity evaluations in resting PBL cultures, nonadherent cells were resuspended (5 × 10^5 cells/mL) and treated for 72 h with the test compounds.

[2] = test system: human peripheral blood lymphocytes stimulated with PHA; assay: Cytotoxicity in PHA-stimulated PBLs (MTT); type: cell-based; conditions: Lymphocyte, 72 h, mean ± SEM, three experiments, read-out: GI50 PBLPHA
Method: as §1, §2

[3] = test system: tumor growth; design: method as in PMID 17915194, PMID 21215627; conditions: in vivo models, dose of 50–100 mg/kg; cited from earlier work
[4] = target: bovine brain tubulin (Bos taurus, UniProt P81947+Q6B856); assay: Inhibition of tubulin assembly (turbidimetry); type: biochemical; conditions: 9 μM (0.9 mg/mL) tubulin, 20 min at 30 °C; read-out: inhibition of tubulin assembly IC50 ± SD
Chain of bovine brain tubulin (Q6B856 whole entry): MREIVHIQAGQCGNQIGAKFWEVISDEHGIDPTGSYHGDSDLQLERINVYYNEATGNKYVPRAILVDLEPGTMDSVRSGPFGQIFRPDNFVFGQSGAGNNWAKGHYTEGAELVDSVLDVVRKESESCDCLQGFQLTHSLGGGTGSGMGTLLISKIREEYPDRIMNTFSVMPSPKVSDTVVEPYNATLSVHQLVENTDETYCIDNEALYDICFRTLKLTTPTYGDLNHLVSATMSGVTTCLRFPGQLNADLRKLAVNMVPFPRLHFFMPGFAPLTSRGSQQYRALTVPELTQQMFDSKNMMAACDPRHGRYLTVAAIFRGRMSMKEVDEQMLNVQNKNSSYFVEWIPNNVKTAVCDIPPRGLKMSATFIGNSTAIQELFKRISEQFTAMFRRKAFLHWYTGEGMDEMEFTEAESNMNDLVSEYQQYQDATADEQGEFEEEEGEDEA
Chain of bovine brain tubulin (P81947 whole entry): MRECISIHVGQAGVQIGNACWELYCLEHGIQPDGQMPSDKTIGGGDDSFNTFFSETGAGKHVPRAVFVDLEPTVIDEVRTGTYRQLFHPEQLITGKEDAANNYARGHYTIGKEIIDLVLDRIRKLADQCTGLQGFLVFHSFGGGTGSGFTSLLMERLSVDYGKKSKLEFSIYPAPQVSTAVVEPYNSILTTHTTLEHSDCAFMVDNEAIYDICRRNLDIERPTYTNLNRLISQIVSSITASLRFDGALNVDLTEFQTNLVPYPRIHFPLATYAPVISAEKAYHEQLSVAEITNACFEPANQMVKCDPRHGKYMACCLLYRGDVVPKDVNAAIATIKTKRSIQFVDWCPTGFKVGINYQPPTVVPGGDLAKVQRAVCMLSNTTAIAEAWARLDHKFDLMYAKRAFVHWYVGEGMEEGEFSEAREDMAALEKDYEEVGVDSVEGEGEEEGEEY

[5] = test system: NCI-60 panel of human cancer cell lines; design: method as in earlier work; conditions: full NCI panel, ref 42−45, cited from earlier work
[6] = test system: six lymphoma cell lines; assay: MTT cell proliferation, all lymphoma cell lines; type: cell-based, human; conditions: 1 μM, 72 h, of the untreated cells
Method: (§3) All compounds were further tested at the concentration of 1 μM on four cell lines derived from distinct lymphoma histotypes, plus two with secondary resistance to the PI3Kδ inhibitor idelalisib[51] or to the BTK inhibitor ibrutinib.[52] […] For comparison, the same experiments were conducted using compound 3, but the response to it was minimal, and thus it was not considered further.
Established human cell lines derived from germinal center B-cell (GCB) (SU-DHL-10), activated B-cell (ABC) (HBL1) diffuse large B-cell lymphoma (DLBCL), mantle cell lymphoma (MCL) (MINO), splenic marginal zone lymphoma (SMZL) (parental VL51, VL51 idelalisib resistant clone, VL51 ibrutinib resistant clone) were cultured in culture RPMI-1640 media supplemented with fetal bovine serum (10%), penicillin–streptomycin–neomycin (∼5,000 units of penicillin, 5 mg of streptomycinm and 10 mg of neomycin/mL, Sigma), and L-glutamine (1%). Vincristine sulfate was purchased from Sigma-Aldrich. […]
The antiproliferative activity of all compounds was assessed by using the 3-(4.5-dimethylthiazolyl-2)-2,5-diphenyltetrazolium bromide (MTT) test. […] Wells containing medium only were included on each plate and served as blanks for absorbance readings. […] Cells were then lysed with 25% sodium dodecyl sulfate lysis buffer, and absorbance was read at 570 nm using a Beckman Coulter-AD340 plate reader.

[7] = test system: HBL1 (ABC DLBCL); assay: MTT cell proliferation, lymphoma; type: cell-based; conditions: Homo sapiens, 1 μM, 72 h, of untreated cells, read-out: Proliferating cells (%)
Method: as §3
(§4) Established human cell lines derived from germinal center B-cell (GCB) (SU-DHL-10), activated B-cell (ABC) (HBL1) diffuse large B-cell lymphoma (DLBCL), mantle cell lymphoma (MCL) (MINO), splenic marginal zone lymphoma (SMZL) (parental VL51, VL51 idelalisib resistant clone, VL51 ibrutinib resistant clone) were cultured in culture RPMI-1640 media supplemented with fetal bovine serum (10%), penicillin–streptomycin–neomycin (∼5,000 units of penicillin, 5 mg of streptomycinm and 10 mg of neomycin/mL, Sigma), and L-glutamine (1%). Vincristine sulfate was purchased from Sigma-Aldrich. Cell line identities were confirmed by CellCheck test (IDEXX, BioResearch, Ludwigsburg, Germany). All compounds were dissolved in dimethyl sulfoxide to obtain a stock concentration of 10 mM.
(§5) The antiproliferative activity of all compounds was assessed by using the 3-(4.5-dimethylthiazolyl-2)-2,5-diphenyltetrazolium bromide (MTT) test. Cells were seeded in 96-well plates (nontissue culture treated) at a density of 1 × 10^5 cells/mL and treated with a single concentration of 1 μM for 72 h. […] In this case, cells were treated in triplicate with serially diluted compounds in the appropriate tissue culture medium at a range of 40–10 000 nM. Cells were incubated for 72 h at 37 °C, 5% CO2. Wells containing medium only were included on each plate and served as blanks for absorbance readings. MTT (Sigma, Buchs, Switzerland) was prepared as a 5 mg/mL stock solution in phosphate buffered saline (PBS) and filter-sterilized. MTT solution (22 μL) was added to each well, and tissue culture plates were incubated at 37 °C for 4 h. Cells were then lysed with 25% sodium dodecyl sulfate lysis buffer, and absorbance was read at 570 nm using a Beckman Coulter-AD340 plate reader.

[8] = test system: VL51 (MZL); assay: MTT cell proliferation, lymphoma; type: cell-based; conditions: Homo sapiens, 1 μM, 72 h, of untreated cells, read-out: Proliferating cells (%)
Method: as §3, §4, §5

[9] = test system: SU-DHL-10 (GCB DLBCL); assay: MTT cell proliferation, lymphoma; type: cell-based; conditions: Homo sapiens, SU-DHL10; 1 μM, 72 h, of untreated cells; read-out: Proliferating cells (%)
Method: as §3, §4, §5

[10] = test system: VL51 ibrutinib-resistant; assay: MTT cell proliferation, lymphoma; type: cell-based; conditions: Homo sapiens, 72 h, of untreated cells, read-out: Proliferating cells (%)
Method: as §3, §4, §5

[11] = test system: VL51 idelalisib-resistant; assay: MTT cell proliferation, lymphoma; type: cell-based; conditions: Homo sapiens, 72 h, of untreated cells, read-out: Proliferating cells (%)
Method: as §3, §4, §5

[12] = test system: MINO (MCL); assay: MTT cell proliferation, lymphoma; type: cell-based; conditions: Homo sapiens, 1 μM, 72 h, of untreated cells, read-out: Proliferating cells (%)
Method: as §3, §4, §5

[13] = target: tubulin colchicine site (Bos taurus, UniProt P81947+Q6B856); assay: Inhibition of [3H]colchicine binding to tubulin; conditions: read-out: inhibition of colchicine binding % inhibition ± SD
Chain of tubulin colchicine site (Q6B856 whole entry): as the sequence (Q6B856 whole entry) above
Chain of tubulin colchicine site (P81947 whole entry): as the sequence (P81947 whole entry) above
Method: Reaction mixtures in the assembly assay contained 9 μM (0.9 mg/mL) tubulin in the assembly assay, and in the colchicine assay they contained 0.5 μM tubulin, 5.0 μM [^3H]colchicine, and 5.0 μM inhibitor.
Analysis of effects on tubulin polymerization was performed by turbidimetry at 350 nm in recording spectrophotometers equipped with electronic temperature controllers as described in detail elsewhere.[71] […] The binding of [^3H]colchicine to tubulin was perfomed as described in detail previously[72] except that the tubulin concentration was reduced from 0.1 mg/mL to 0.05 mg/mL and only one, instead of two, DEAE-cellulose filter was used for each reaction mixture.

Row | Structure (SMILES) | GI50 [1] [µM] | GI50 [2] [µM] | reduction of tumor growth [3] | IC50 [4] [µM] | MG_MID (mean graph midpoint) [5] [µM] | GI50 ([5]; read-out: GI50 range) [µM] | percentage of proliferating cells, all tested cell lines [6] | activity at 1 µM [7] [%] | activity at 1 µM [8] [%] | activity at 1 µM [9] [%] | activity at 1 µM [10] [%] | activity at 1 µM [11] [%] | activity at 1 µM [12] [%] | inhibition at 5 µM [13] [%]
1 | CC[C@]1(O)C[C@H]2CN(CCc3c([nH]c4ccccc34)[C@@](C(=O)OC)(c3cc4c(cc3OC)N(C=O)[C@H]3[C@@](O)(C(=O)OC)[C@H](OC(C)=O)[C@]5(CC)C=CCN6CC[C@]43[C@@H]65)C2)C1 [vincristine, reference compound] | 7.5 ± 3.1 | 1.2 ± 0.6 |  |  |  |  |  |  |  |  |  |  |  | 
2 | CCc1cc(-c2oncc2-c2ccc(OC)cc2)c(O)cc1OC [KRIBB3] |  |  | 50–70% |  |  |  |  |  |  |  |  |  |  | 
3 | CCOC(=O)c1cc2c(n1Cc1cc(OC)cc(OC)c1)-c1oncc1CC2 [Compound 3, ethyl 8-(3,5-dimethoxybenzyl)-5,8-dihydro-4H-[1,2]oxazolo[4,5-g]indole-7-carboxylate, reference compound] |  |  |  | 9.2 ± 0.4 | 0.25 | 0.03 to 31.1 | minimal | 95.6 | 93.5 | 80 | 123 | 107 | 94.5 | 
4 | COc1cc(Cn2ccc3c2-c2oncc2CCC3)cc(OC)c1 [Compound 58, 9-(3,5-Dimethoxybenzyl)-4,5,6,9-tetrahydropyrrolo[2′,3′:3,4]cyclohepta[1,2-d][1,2]oxazole] |  |  |  | 5.7 ± 1 |  |  |  | 114 | 84 | 72.4 | 73 | 78.4 | 101 | 25 ± 3
